For 19 compounds, IC50 results are on record in patent US20250136586A1, “Substituted 7-(Pyrimidin-4-yl)Quinolin-4(1H)-One Compounds as Cyclin Dependent Kinase Inhibitors” (BeiGene, Ltd., priority 2022, published 2025).

By IC50 is commonly meant the midpoint of a concentration-inhibition curve.

Test [1] deals with CDK6/Cyclin D3 (Homo sapiens (Human), UniProt Q00534). The experiment in a line: TR-FRET kinase inhibition assay, CDK6/Cyclin D3. The note with it: 1 mM ATP, 0.15 μM Rb (Ser780)-biotin substrate, read-out: CDK6D3 IC50. The class given is biochemical. As to the method:
(§1) Compounds disclosed herein were tested for inhibition of CDK4/Cyclin D1 or CDK6/Cyclin D3 kinase in an assay based on the time-resolved fluorescence-resonance energy transfer (TR-FRET) methodology. The assay was carried out in 384-well low volume black plates in a reaction mixture containing CDK4/Cyclin D1 or CDK6/Cyclin D3, 1 mM ATP, 0.15 μM Rb (Ser780)-biotin substrate and 0-10 μM compound in buffer containing 50 mM HEPES pH7.0, 0.02% NaN3, 0.01% BSA, 0.1 mM Orthovanadate, 50 mM MgCl2, 1 mM DTT and 0.005% Tween-20. The kinase was incubated with compound for 60 minutes at room temperature and the reaction was initiated by the addition of ATP and Rb (Ser780)-biotin substrate. After reaction at room temperature for 120 minutes, an equal volume of stop/detection solution was added according to the manufacture's instruction (Cisbio Bioassays). The stop/detection solution contained Streptavidin-XL665 and Anti-pRb (Ser780) mAb-Eu Cryptate in Detection buffer (Cisbio Bioassays). Plates were incubated at room temperature for 60 minutes, and the TR-FRET signals (ex337 nm, em665 nm/620 nm) were recorded on a PHERAstar FSX plate reader (BMG Labtech). The inhibition percentage of CDK4/Cyclin D1 or CDK6/Cyclin D3 kinase activity in presence of increasing concentrations of compounds was calculated based on the ratio of fluorescence at 665 nm to that at 620 nm. The IC50 for each compound was derived from fitting the data to the four-parameter logistic equation by Dotmatics.
Background: TR-FRET usually uses a lanthanide donor and a delayed reading to cut background.

Test [2] has as its target CDK4/Cyclin D1 (Homo sapiens (Human), UniProt P11802). The experiment in a line: TR-FRET kinase inhibition assay, CDK4/Cyclin D1. The test is classed as biochemical. To be noted: 1 mM ATP, 0.15 μM Rb (Ser780)-biotin substrate, read-out: CDK4D1 IC50. On the procedure: as §1, with “The assay was carried out in 384-well low volume black plates in a reaction mixture containing CDK4/Cyclin D1 or CDK6/Cyclin D3, 1 mM ATP, 0.15 μM Rb (Ser780)-biotin substrate and 0-10 μM compound in buffer containing 50 mM HEPES pH7.0, 0.02% NaN3, 0.01% BSA, 0.1 mM Orthovanadate, 50 mM MgCl2, 1 mM DTT and 0.005% Tween-20.” left out, “Plates were incubated at room temperature for 60 minutes, and the TR-FRET signals (ex337 nm, em665 nm/620 nm) were recorded on a PHERAstar FSX plate reader (BMG Labtech).” left out

Chain of CDK4/Cyclin D1 (P11802 whole entry): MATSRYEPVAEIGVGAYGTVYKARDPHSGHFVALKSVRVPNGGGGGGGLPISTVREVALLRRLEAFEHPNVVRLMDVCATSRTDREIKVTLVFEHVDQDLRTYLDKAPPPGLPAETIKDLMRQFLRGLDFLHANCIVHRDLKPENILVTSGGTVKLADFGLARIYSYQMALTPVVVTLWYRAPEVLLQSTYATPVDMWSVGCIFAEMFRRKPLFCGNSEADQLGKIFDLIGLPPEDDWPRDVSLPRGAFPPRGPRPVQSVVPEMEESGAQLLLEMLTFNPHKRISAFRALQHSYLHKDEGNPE
Chain of CDK4/Cyclin D1 (P24385 whole entry partner): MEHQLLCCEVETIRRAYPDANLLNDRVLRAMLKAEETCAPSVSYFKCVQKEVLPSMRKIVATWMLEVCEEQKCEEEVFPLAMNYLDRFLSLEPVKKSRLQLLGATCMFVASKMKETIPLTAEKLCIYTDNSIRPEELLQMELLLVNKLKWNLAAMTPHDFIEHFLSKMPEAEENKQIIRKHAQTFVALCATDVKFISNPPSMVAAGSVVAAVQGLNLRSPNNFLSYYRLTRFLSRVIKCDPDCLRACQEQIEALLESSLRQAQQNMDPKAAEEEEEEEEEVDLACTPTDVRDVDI
Chain of CDK6/Cyclin D3 (Q00534 whole entry): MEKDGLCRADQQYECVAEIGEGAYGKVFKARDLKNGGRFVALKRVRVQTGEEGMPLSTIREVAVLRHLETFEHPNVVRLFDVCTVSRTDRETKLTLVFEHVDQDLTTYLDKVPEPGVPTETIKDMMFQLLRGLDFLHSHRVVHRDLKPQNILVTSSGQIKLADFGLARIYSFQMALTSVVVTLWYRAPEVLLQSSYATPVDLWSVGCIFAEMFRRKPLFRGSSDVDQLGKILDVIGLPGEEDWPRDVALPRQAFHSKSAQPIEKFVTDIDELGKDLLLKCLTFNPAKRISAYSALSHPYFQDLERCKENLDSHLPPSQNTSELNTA
Chain of CDK6/Cyclin D3 (P30281 whole entry partner): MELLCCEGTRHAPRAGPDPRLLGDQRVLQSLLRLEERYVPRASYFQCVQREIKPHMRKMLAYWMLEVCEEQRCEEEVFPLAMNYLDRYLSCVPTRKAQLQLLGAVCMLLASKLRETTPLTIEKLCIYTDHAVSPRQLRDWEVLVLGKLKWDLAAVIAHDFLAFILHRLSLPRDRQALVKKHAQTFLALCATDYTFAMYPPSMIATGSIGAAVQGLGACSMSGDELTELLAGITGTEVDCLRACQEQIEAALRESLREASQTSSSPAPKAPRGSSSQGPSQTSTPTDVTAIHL

For `CC(C)n1cc(Cl)c(=O)c2ccc(-c3nc(N[C@@H]4CCOC[C@H]4O)ncc3F)cc21` [Example 12, 3-chloro-7-(5-fluoro-2-(((3S,4R)-3-hydroxytetrahydro-2H-pyran-4-yl)amino)pyrimidin-4-yl)-1-isopropylquinolin-4(1H)-one], the values for the IC50 in test [1] and in test [2] were 1930 nM and 258 nM, respectively.
On the same counts, the results for `CC(C)n1c(CN2CCC[C@@]3(CCNC3=O)C2)cc(=O)c2ccc(-c3nc(N[C@@H]4CCOC[C@H]4O)ncc3F)cc21` [Example 104, (R)-7-((7-(5-fluoro-2-(((3S,4R)-3-hydroxytetrahydro-2H-pyran-4-yl)amino)pyrimidin-4-yl)-1-isopropyl-4-oxo-1,4-dihydroquinolin-2-yl)methyl)-2,7-diazaspiro[4.5]decan-1-one] are 139 nM and 24 nM.
For `CC(C)n1c(CN2C3CCC2COC3)cc(=O)c2ccc(-c3nc(N[C@@H]4CCOC[C@H]4O)ncc3F)cc21` [Example 29, 2-((3-oxa-8-azabicyclo[3.2.1]octan-8-yl)methyl)-7-(5-fluoro-2-(((3S,4R)-3-hydroxytetrahydro-2H-pyran-4-yl)amino)pyrimidin-4-yl)-1-isopropylquinolin-4(1H)-one], the figures for the IC50 in test [1] and in test [2] were 361 nM and 19 nM, respectively.
For the compound `CNC(=O)c1c(C)c(=O)c2ccc(-c3nc(N[C@@H]4CCOC[C@H]4O)ncc3F)cc2n1C(C)C` [Example 24, 7-(5-fluoro-2-(((3S,4R)-3-hydroxytetrahydro-2H-pyran-4-yl)amino)pyrimidin-4-yl)-1-isopropyl-N,3-dimethyl-4-oxo-1,4-dihydroquinoline-2-carboxamide], the IC50 in test [1] was found to be 432 nM; in test [2] it was 24 nM.
On the same counts, the results for `CC(C)n1c(CN2CC3CC2C3)cc(=O)c2ccc(-c3nc(N[C@@H]4CCOC[C@H]4O)ncc3F)cc21` [Example 43, 2-((2-azabicyclo[2.1.1]hexan-2-yl)methyl)-7-(5-fluoro-2-(((3S,4R)-3-hydroxytetrahydro-2H-pyran-4-yl)amino)pyrimidin-4-yl)-1-isopropylquinolin-4(1H)-one] are 1300 nM and 25 nM.
On the same counts, the results for `Cc1c(CN2CC[C@](C)(O)C2)n(C(C)C)c2cc(-c3nc(N[C@@H]4CCOC[C@H]4O)ncc3F)ccc2c1=O` [Example 125, 7-(5-fluoro-2-(((3S,4R)-3-hydroxytetrahydro-2H-pyran-4-yl)amino)pyrimidin-4-yl)-2-(((S)-3-hydroxy-3-methylpyrrolidin-1-yl)methyl)-1-isopopyl-3-methylquinolin-4(1H)-one] are 360 nM and 15 nM.
On the same counts, the results for `CC(C)n1c(C(=O)NCCC#N)cc(=O)c2ccc(-c3nc(N[C@@H]4CCOC[C@H]4O)ncc3Cl)cc21` [Example 21, 7-(5-chloro-2-(((3S,4R)-3-hydroxytetrahydro-2H-pyran-4-yl)amino)pyrimidin-4-yl)-N-(2-cyanoethyl)-1-isopropyl-4-oxo-1,4-dihydroquinoline-2-carboxamide] are 385 nM and 35 nM.
With `Cc1c(CN[C@@H]2CCOC2)n(C(C)C)c2cc(-c3nc(N[C@@H]4CCOC[C@H]4O)ncc3F)ccc2c1=O` [Example 112, 7-(5-fluoro-2-(((3S,4R)-3-hydroxytetrahydro-2H-pyran-4-yl)amino)pyrimidin-4-yl)-1-isopropyl-3-methyl-2-((((R)-tetrahydrofuran-3-yl)amino)methyl)quinolin-4(1H)-one], the IC50 amounted to 615 nM in test [1] and 15 nM in test [2].
On the same counts, the results for `Cc1c(CN(C)C)n(C(C)C)c2cc(-c3nc(N[C@@H]4CCOC[C@H]4O)ncc3F)ccc2c1=O` [Example 108, 2-((dimethylamino)methyl)-7-(5-fluoro-2-(((3S,4R)-3-hydroxytetrahydro-2H-pyran-4-yl)amino)pyrimidin-4-yl)-1-isopropyl-3-methylquinolin-4(1H)-one] are 392 nM and 14 nM.
Consider `CC(C)n1c(CN2CC[C@H](F)C2)cc(=O)c2ccc(-c3nc(N[C@@H]4CCOC[C@H]4O)ncc3F)cc21` [Example 27, 7-(5-fluoro-2-(((3S,4R)-3-hydroxytetrahydro-2H-pyran-4-yl)amino)pyrimidin-4-yl)-2-(((S)-3-fluoropyrrolidin-1-yl)methyl)-1-isopropylquinolin-4(1H)-one], for which the IC50 in test [1] came to 148 nM; in test [2] it was 5.7 nM.
On the same counts, the results for `CC(C)n1c(CN2CCC(F)(F)CC2)cc(=O)c2ccc(-c3nc(N[C@@H]4CCOC[C@H]4O)ncc3F)cc21` [Example 54, 2-((4,4-difluoropiperidin-1-yl)methyl)-7-(5-fluoro-2-(((3S,4R)-3-hydroxytetrahydro-2H-pyran-4-yl)<amino)pyrimidin-4-yl)-1-isopropylquinolin-4(1H)-one] are 260 nM and 13 nM.
For the compound `Cc1c(CNC2CC2)n(C(C)C)c2cc(-c3nc(N[C@@H]4CCOC[C@H]4O)ncc3F)ccc2c1=O` [Example 109, 2-((cyclopropylamino)methyl)-7-(5-fluoro-2-(((3S,4R)-3-hydroxytetrahydro-2H-pyran-4-yl)amino)pyrimidin-4-yl)-1-isopropyl-3-methylquinolin-4(1H)-one], the figures for the IC50 in test [1] and in test [2] were 211 nM and 6.2 nM, respectively.
On the same counts, the results for `CNC(=O)c1c(Cl)c(=O)c2ccc(-c3nc(N[C@@H]4CCOC[C@H]4O)ncc3F)cc2n1C(C)C` [Example 23, 3-chloro-7-(5-fluoro-2-(((3S,4R)-3-hydroxytetrahydro-2H-pyran-4-yl)amino)pyrimidin-4-yl)-1-isopropyl-N-methyl-4-oxo-1,4-dihydroquinoline-2-carboxamide] are 445 nM and 53 nM.
On the same counts, the results for `Cc1cn(C(C)C)c2cc(-c3nc(N[C@@H]4CCOC[C@H]4O)ncc3F)ccc2c1=O` [Example 2, 7-(5-fluoro-2-(((3S,4R)-3-hydroxytetrahydro-2H-pyran-4-yl)amino)pyrimidin-4-yl)-1-isopropyl-3-methylquinolin-4(1H)-one] are 1220 nM and 68 nM.
On the same counts, the results for `Cc1c(CN)n(C(C)C)c2cc(-c3nc(N[C@@H]4CCOC[C@H]4O)ncc3F)ccc2c1=O` [Example 120, 2-(aminomethyl)-7-(5-fluoro-2-(((3S,4R)-3-hydroxytetrahydro-2H-pyran-4-yl)amino)pyrimidin-4-yl)-1-isopropyl-3-methylquinolin-4(1H)-one] are 265 nM and 5.9 nM.
For the compound `CC(C)n1c(CN2CCO[C@H](C)C2)cc(=O)c2ccc(-c3nc(N[C@@H]4CCOC[C@H]4O)ncc3F)cc21` [Example 18, 7-(5-fluoro-2-(((3S,4R)-3-hydroxytetrahydro-2H-pyran-4-yl)amino)pyrimidin-4-yl)-1-isopropyl-2-(((R)-2-methylmorpholino)methyl)quinolin-4(1H)-one], the figures for the 50% inhibitory concentration (IC50) in test [1] and in test [2] were 1210 nM and 27 nM, respectively.
On the same counts, the results for `CC(C)n1c(CN2CCC(C)(C)CC2)cc(=O)c2ccc(-c3nc(N[C@@H]4CCOC[C@H]4O)ncc3F)cc21` [Example 97, 2-((4,4-dimethylpiperidin-1-yl)methyl)-7-(5-fluoro-2-(((3S,4R)-3-hydroxytetrahydro-2H-pyran-4-yl)amino)pyrimidin-4-yl)-1-isopropylquinolin-4(1H)-one] are 2050 nM and 64 nM.
On to `CC(C)n1c(CN2CCC[C@]3(CCNC3=O)C2)cc(=O)c2ccc(-c3nc(N[C@@H]4CCOC[C@H]4O)ncc3F)cc21` [Example 105, (S)-7-((7-(5-fluoro-2-(((3S,4R)-3-hydroxytetrahydro-2H-pyran-4-yl)amino)pyrimidin-4-yl)-1-isopropyl-4-oxo-1,4-dihydroquinolin-2-yl)methyl)-2,7-diazaspiro[4.5]decan-1-one], for which the IC50 is 291 nM in test [1] and 4.1 nM in test [2].
With `CC(C)n1c(CN2CC[C@](C)(O)C2)cc(=O)c2ccc(-c3nc(N[C@@H]4CCOC[C@H]4O)ncc3F)cc21` [Example 61, 7-(5-fluoro-2-(((3S,4R)-3-hydroxytetrahydro-2H-pyran-4-yl)amino)pyrimidin-4-yl)-2-(((S)-3-hydroxy-3-methylpyrrolidin-1-yl)methyl)-1-isopropylquinolin-4(1H)-one], the IC50 in test [1] turned out to be 1170 nM; in test [2], 30 nM.
